Publication PMC8510480, “Searching Anti-Zika Virus Activity in 1H-1,2,3-Triazole Based Compounds” (Molecules, 2021)

Legend:
[1] = Cytotoxicity test with MTT method in Vero cells; type: cell-based, African green monkey; conditions: African green monkey, 5 days, read-out: CC50 (50% cytotoxic concentration)
Experimental: (§1) The cytotoxicity of compounds 1–7 to Vero cells, an epithelial cell line derived from the kidney of an African green monkey, was tested using the 3-(4,5-dimethylthiazol-2-yl)-2,5-diphenyltetrazolium bromide (MTT) method. […] Based on CC20 values, which was the maximum concentration used for antiviral screening, 3b compound was the least toxic with a value of 527.2 µM. Compounds 2a and 2b were the most cytotoxic with values of 8.87 µM and 9.89 µM, respectively. […] The results from compounds 3a, 3b and 4a, 4b ranged from 40.69 to 527.20 µM. […] The presence of phthalimide group or sugar increases the values of CC20 and CC50 (Table 2 and Supplementary Material: Figure S1).
(§2) 96-well plates with 1 × 10^4 cell/well were used in this assay and prepared 24 h previously. The compounds were diluted in a 2:1 ratio so that a maximum of 0.8% DMSO was used. The concentrations used were 800, 400, 200, 100, 50, 25 and 12.5 µM. Dilutions were added to the wells in triplicate and incubated at 37 °C and 5% CO2 atmosphere. After 5 days, the wells were emptied and a 50 µL of 1 mg/mL MTT (3-(4,5-dimethylthiazol-2-yl)-2,5-diphenyltetrazolium bromide) (Sigma-Aldrich) solution was added, and the cells were incubated for 3–4 h for formation of formazan crystals through the mitochondria of viable cells. Then, medium was removed and 100 µL DMSO was added to the wells to solubilize the formazan crystals. With the aid of an incubator Tecnal TE-420 (Tecnal Equipamentos Científicos, Piracicaba, São Paulo, Brazil), the plates were homogenized at 120 RPM at 37 °C and the optical densities were read at 570 nm on a spectrophotometer BioTekTM ELx800TM (BioTek Instruments, Winooski, VT, USA).
(§3) The determination of the CC20 and CC50 values was obtained through the linear regression analysis of the XY graph generated by the values of the concentrations used in the test and the triplicate values of the viability. In the post-infection and pre-treatment tests, ANOVA and Dunnett tests were used, considering […] as the minimum significance value. All tests were performed in GraphPad Prism v.6.0 program (GraphPad Software, Inc., San Diego, CA, USA).

[2] = system: Vero cells; assay: Cytotoxicity test with MTT method in Vero cells; type: cell-based, African green monkey; conditions: 5 days
Experimental: as §1, §2, §3

[3] = system: ZIKV; assay: Screening test for anti-ZIKV activity (post-infection, compounds at CC20, TCID50 titration); type: cell-based, Zika virus; conditions: ZIKV MOI 0.1, compound at CC20, 5 days, TCID50, Vero cells
Experimental: The antiviral activities of the compounds were evaluated by infecting Vero cells with ZIKV and then treating them with the testing molecules. Virus titer in the supernatants of treated wells and its comparison with the negative (cell + virus) and the positive 6-methylmercaptopurine riboside (6MMPr) controls allowed for the determination of the antiviral effect.
Figure 4 Graphic result of all triazole derivates in the screening test for anti-ZIKV activity. The screening test was made for post-infection with ZIKV MOI 0.1 and treated with CC20 values from heterocyclic compounds discovered in the cytotoxicity test. After five days, the supernatant was collected and titrated by TCID50 method. The experiment was conducted in triplicates and values are the mean and the standard deviation (SD). […]
(§4) 96-well plates with 1 × 10^4 cell/well were used in this assay and prepared 24 h previously. […] The reading was performed in an inverted optical microscope AE2000, Motic (Motic, Kowloon Bay, Hong Kong) counting positives wells by the presence of cytopathic effect and the determination of the sample title was performed with the aid of the Microsoft Office Excel program (Microsoft® Office, Redmond, WA, USA).
The screening of the compounds was carried out with the CC20 value (µM) to determine the most viable compounds for more detailed antiviral tests. […] The samples were then titrated and analysed statistically.

[4] = system: ZIKV; assay: Pre-treatment test to ZIKV in Vero cells; type: cell-based, Zika virus; conditions: 1 h pre-treatment at 136.90, 68.45, 34.22 and 17.11 µM, then ZIKV MOI 0.1, 5 days
Experimental: Since compound 4b was the only one in the series with activity against ZIKV, further experiments were conducted to elucidate its mechanism of action in cells that were pre-treated. To this, cells were pre-treated with varying concentrations of compound 4b, washed, and then infected with ZIKV. The concentrations used were chosen with the aim to preserve cellular viability and, thus, the maximum concentration was the previously determined CC20 value (136.90, 68.45, 34.22 and 17.11 µM).
Figure 5 Graphic result for compound 4b in the pre-treatment test to ZIKV. Vero cells in a 48-well cell plate were treated with 4b in different concentrations and after 1 h the supernatant was discarded. Cells were washed with PBS 1X, ZIKV MOI 0.1 was inoculated, and the plate was incubated again. After five days, the supernatant was collected and titrated by TCID50 method. The experiment was conducted in triplicates and values are the mean and the SD. […]
as §4, with “USA). […]” for “USA).”

For `O=C1C(Br)=C(NCc2cn(CN3C(=O)c4ccccc4C3=O)nn2)C(=O)c2ccccc21` [Compound 4b], the CC50 at 5 days [1] was 330 µM, the “CC20 (20% cytotoxic concentration)” value [2] was 136.90 µM and the “reduction in viral titer vs non-treated control” value [3] was “statistically significant reduction in viral titer”. For the same compound, the “change in virus titers vs negative control” value [4] was “no significant change in virus titers”.
